Test results: publication PMC12817894, “Two solutions for efficient light-harvesting in phototrophic Gemmatimonadota” (mSystems, 2025)

Target: T1, RC (reaction center) of the RC-dLH complex, L and M subunits (Gemmatimonas groenlandica, UniProt A0A6M4ILR2+A0A6M4IPC7)
T1 construct: gene HKW67_08800; native reaction center within the RC-dLH complex purified from Gem. groenlandica cells, DDM-solubilized; RC-U not detected; with Photosynthetic reaction center cytochrome c subunit; Photosynthetic reaction center H subunit, transmembrane part; Photosynthetic reaction center H subunit, cytoplasmic part; Reaction center subunit S
T1 sequence (A0A6M4IPC7 1-274): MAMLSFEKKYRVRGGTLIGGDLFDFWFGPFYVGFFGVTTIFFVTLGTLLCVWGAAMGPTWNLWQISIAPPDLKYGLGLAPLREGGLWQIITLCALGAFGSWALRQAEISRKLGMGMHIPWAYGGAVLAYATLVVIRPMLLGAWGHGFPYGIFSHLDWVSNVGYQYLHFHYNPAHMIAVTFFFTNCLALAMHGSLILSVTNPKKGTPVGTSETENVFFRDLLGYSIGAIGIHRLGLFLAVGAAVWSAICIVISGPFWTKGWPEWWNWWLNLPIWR
T1 sequence (A0A6M4ILR2 1-392): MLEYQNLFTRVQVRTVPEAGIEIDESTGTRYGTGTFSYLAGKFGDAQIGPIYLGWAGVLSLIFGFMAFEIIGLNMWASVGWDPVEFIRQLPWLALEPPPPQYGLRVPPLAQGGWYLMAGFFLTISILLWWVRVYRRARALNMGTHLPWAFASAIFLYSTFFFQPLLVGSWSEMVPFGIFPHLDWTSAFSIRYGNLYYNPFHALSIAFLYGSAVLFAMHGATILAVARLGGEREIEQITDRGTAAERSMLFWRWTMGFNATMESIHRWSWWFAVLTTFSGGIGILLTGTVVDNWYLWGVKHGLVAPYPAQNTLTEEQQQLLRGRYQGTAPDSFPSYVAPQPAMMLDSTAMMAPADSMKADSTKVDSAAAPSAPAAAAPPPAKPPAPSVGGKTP
Test: cryo-EM structure ([…] Å)
Format: binding
Conditions: modeled ligand; placement in RC L/M from known biology

`CC[C@H]1c2cc3[nH]c4c(c3C)C(=O)[C@H](C(=O)OC)c4c3nc(cc4[nH]c(cc(n2)[C@@H]1C)c(C(C)=O)c4C)[C@@H](C)[C@@H]3CCC(=O)OC/C=C(\C)CCC[C@H](C)CCC[C@H](C)CCCC(C)C` [bacteriopheophytin] was tested, and the “cryo-EM structure (2.3 Å)” value was “bacteriochlorophyll, bacteriopheophytin, gemmatoxanthin, dodecyl-maltoside, phosphoethanolamine, heme, water, cardiolipin, menaquinone, and spirilloxanthin”.
